Among the data in ChEMBL document CHEMBL1157823, “Cyclopeptide Smac mimetics as antagonists of IAP proteins” (Bioorg Med Chem Lett, 2010) are Activity, Ki and IC50 values, retold here.

Usually Ki stands for a measure of affinity in units of concentration, obtained from inhibition or displacement. A high value points to lower affinity. Broadly, the IC50 is the concentration at which inhibition is half-maximal. Read a low IC50 as greater potency in that assay.

Molecules are shown by their SMILES.

For test [1], the target named is T1, E3 ubiquitin-protein ligase XIAP (Homo sapiens, UniProt P98170). The test is described as follows: Antagonist activity at XIAP BIR3 domain assessed as restoration of caspase 9 activity by caspase-Glo 9 assay. In kind it is functional.
T1 sequence (P98170 whole entry, the tested form may be a part): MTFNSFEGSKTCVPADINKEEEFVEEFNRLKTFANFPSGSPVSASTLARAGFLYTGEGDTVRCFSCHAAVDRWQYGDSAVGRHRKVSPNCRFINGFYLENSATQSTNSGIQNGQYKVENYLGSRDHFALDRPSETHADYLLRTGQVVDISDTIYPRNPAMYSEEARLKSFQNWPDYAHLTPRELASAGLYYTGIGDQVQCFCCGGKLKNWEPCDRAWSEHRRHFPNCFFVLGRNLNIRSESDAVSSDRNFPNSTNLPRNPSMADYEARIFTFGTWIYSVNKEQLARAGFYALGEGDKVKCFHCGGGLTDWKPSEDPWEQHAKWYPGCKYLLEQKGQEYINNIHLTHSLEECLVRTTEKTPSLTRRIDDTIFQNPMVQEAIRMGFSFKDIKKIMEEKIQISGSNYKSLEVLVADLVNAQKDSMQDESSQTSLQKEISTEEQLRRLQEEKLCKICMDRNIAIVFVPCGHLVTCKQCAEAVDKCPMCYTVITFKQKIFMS
Test [2] concerns the target Baculoviral IAP repeat-containing protein 2 (Homo sapiens, UniProt Q13490). The test is described as follows: Binding affinity to cIAP1 BIR3 domain by fluorescence polarization assay. On the technique in general: In fluorescence polarisation assays a small probe gives low polarisation when free and higher when bound to something large.
Another test relates to MDA-MB-231. The test is described as follows: Cytotoxicity against human MDA-MB-231 cells after 4 days by WST-8 assay. The note with it: MDA-MB-231, 96 h.
A further test concerns SK-OV-3. The test is described as follows: Cytotoxicity against human SKOV3 cells after 4 days by WST-8 assay. The note with it: SK-OV-3, 96 h.
The target of test [3] is T1, E3 ubiquitin-protein ligase XIAP. The test is described as follows: Binding affinity to XIAP linker BIR2-BIR3 domain site 1 by fluorescence polarization assay.
Test [4] shares this target. The test is described as follows: Binding affinity to XIAP linker BIR2-BIR3 domain site 2 by fluorescence polarization assay.

Sequence of Baculoviral IAP repeat-containing protein 2 (Q13490 whole entry, the tested form may be a part): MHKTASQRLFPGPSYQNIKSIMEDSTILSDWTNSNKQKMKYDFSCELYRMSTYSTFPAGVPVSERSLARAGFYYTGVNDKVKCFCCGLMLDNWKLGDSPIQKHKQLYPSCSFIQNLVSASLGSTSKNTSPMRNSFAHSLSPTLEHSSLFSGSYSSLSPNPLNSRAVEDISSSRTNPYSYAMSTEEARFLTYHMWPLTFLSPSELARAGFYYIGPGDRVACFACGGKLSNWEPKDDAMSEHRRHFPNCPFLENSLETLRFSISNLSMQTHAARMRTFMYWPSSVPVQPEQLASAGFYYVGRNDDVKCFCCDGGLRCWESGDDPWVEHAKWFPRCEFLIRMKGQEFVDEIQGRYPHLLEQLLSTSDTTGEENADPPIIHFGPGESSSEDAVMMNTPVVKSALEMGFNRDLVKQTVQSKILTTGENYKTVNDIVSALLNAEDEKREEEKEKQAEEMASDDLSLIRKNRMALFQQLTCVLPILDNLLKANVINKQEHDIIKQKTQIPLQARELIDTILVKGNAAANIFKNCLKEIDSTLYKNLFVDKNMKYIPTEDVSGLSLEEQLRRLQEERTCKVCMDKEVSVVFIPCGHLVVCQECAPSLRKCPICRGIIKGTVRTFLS

`CN[C@@H](C)C(=O)N[C@H]1CCCCn2cc(nn2)[C@H](c2ccccc2)NC(=O)[C@@H]2CCCN2C(=O)[C@@H](NC(=O)[C@H](C)NC)CCCCn2cc(nn2)[C@H](c2ccccc2)NC(=O)[C@@H]2CCCN2C1=O`: in test [1], the Activity entry was “Dose-dependent effect”.

`CN[C@@H](C)C(=O)N[C@H]1CCCCn2cc(nn2)[C@H](Cc2ccccc2)NC(=O)[C@@H]2CCCN2C(=O)[C@@H](NC(=O)[C@H](C)NC)CCCCn2cc(nn2)[C@H](Cc2ccccc2)NC(=O)[C@@H]2CCCN2C1=O`: in test [2], the Ki came out at 0.161 µM. Moreover, the IC50 in the test on MDA-MB-231 is 25.9 µM; with SK-OV-3, 31.5 µM. In test [1], the Activity entry is “Dose-dependent effect”.

In test [2], `CN[C@@H](C)C(=O)N[C@H]1CCCNC(=O)[C@H](Cc2ccccc2)NC(=O)[C@@H]2CCCN2C(=O)[C@@H](NC(=O)[C@H](C)NC)CCCNC(=O)[C@H](Cc2ccccc2)NC(=O)[C@@H]2CCCN2C1=O` registered a Ki of 0.084 µM. Besides, the IC50 in test [3] was 0.001 µM; with MDA-MB-231, 4.6 µM; in test [4] it was 0.481 µM; in the test on SK-OV-3 it was 15.9 µM. In addition, the Activity result in test [1] was “Dose-dependent effect”.
